Laboratory results as given in US9096560B2, “5-heterocyclylalkyl-3-hydroxy-2-phenylcyclopent-2-enones as herbicides” (Syngenta Limited, priority 2008, dated 2015).

Experiments:
Assay type in all cases: in vivo
[1] = system: Winter Wheat variety 'Hereward'; assay: Example C crop damage test on Winter Wheat, post-emergence, no safener; details: Triticum aestivum, 312 h, rate 250 g/ha, evaluated after 13 days, read-out: Winter Wheat (Hereward) damage (100=total damage to plant; 0=no damage to plant)
Procedure: Seeds of the Winter Wheat variety ‘Hereward’ were sown in standard soil in pots. After 8 days cultivation under controlled conditions in a glasshouse (at 24/16° C., day/night; 14 hours light; 65% humidity), the plants were sprayed with an aqueous spray solution derived from the formulation of the technical active ingredient in acetone/water (50:50) solution containing 0.5% Tween 20 (polyoxyethelyene sorbitan monolaurate, CAS RN 9005-64-5). The test plants were then grown in a glasshouse under controlled conditions in a glasshouse (at 24/16° C., day/night; 14 hours light; 65% humidity) and watered twice daily. After 13 days for pre and post-emergence, the test was evaluated (100=total damage to plant; 0=no damage to plant).

[2] = system: Alopecurus myosuroides (ALOMY); assay: Example B pre-emergence herbicidal test, ALOMY; details: Alopecurus myosuroides, 312 h, rate 250 g/ha, evaluated after 13 days, 100=total damage to plant, 0=no damage to plant
How it was run: (§1)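 Pots sown, sprayed day 1 pre-emergence; spray: aqueous dilution of formulation in acetone/water 50:50 + 0.5% Tween 20. Glasshouse 24/16° C, 14 h light, 65% RH, watering twice daily. Visual damage rating at 13 d, 0–100 scale.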

[3] = system: Alopecurus myosuroides (ALOMY); assay: Example B post-emergence herbicidal test, ALOMY; details: Alopecurus myosuroides, 312 h, rate 250 g/ha, evaluated after 13 days, scale 0-100, read-out: Post-emergence activity ALOMY (100=total damage to plant; 0=no damage to plant)
How it was run: (§2)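 Damage was rated visually 13 days after treatment, where 100 meant total plant damage and 0 none. Treatment was a spray of aqueous solution (acetone/water 50:50, 0.5% Tween 20) applied to plants cultivated 8 days from seed under controlled glasshouse conditions.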

[4] = system: Lolium perenne (LOLPE); assay: Example B post-emergence herbicidal test, LOLPE; details: Lolium perenne, 312 h, rate 250 g/ha, evaluated after 13 days, scale 0-100, read-out: Post-emergence activity LOLPE (100=total damage to plant; 0=no damage to plant)
How it was run: as §2

[5] = system: Echinochloa crus-galli (ECHCG); assay: Example B pre-emergence herbicidal test, ECHCG; details: Echinochloa crus-galli, 312 h, rate 250 g/ha, evaluated after 13 days, 100=total damage to plant, 0=no damage to plant
How it was run: as §1

[6] = system: Lolium perenne (LOLPE); assay: Example B pre-emergence herbicidal test, LOLPE; details: Lolium perenne, 312 h, rate 250 g/ha, evaluated after 13 days, 100=total damage to plant, 0=no damage to plant
How it was run: as §1

[7] = system: Avena fatua (AVEFA); assay: Example B pre-emergence herbicidal test, AVEFA; details: Avena fatua, 312 h, rate 250 g/ha, evaluated after 13 days, 100=total damage to plant, 0=no damage to plant
How it was run: as §1

[8] = system: Winter Wheat variety 'Hereward' seed treated with cloquintocet mexyl; assay: Example C crop damage test on Winter Wheat seed treated with safener cloquintocet mexyl, post-emergence; details: rate 250 g/ha, seed treated with cloquintocet mexyl 0.5 grams per kilogram of dry seed, evaluated after 13 days
Procedure: Seeds of the Winter Wheat variety ‘Hereward’ were seed treated with a wettable powder formulation of the cereal herbicide safener, cloquintocet mexyl, at a rate of 0.5 grams per kilogram of dry seed prior to the initiation of glasshouse testing. One seed was sown per 1.5 inch plastic pot into a sandy loam soil at a depth of 1 cm, 8 days prior to application of the test compounds and was watered and grown under controlled conditions in a glasshouse (at 24/16° C., day/night; 14 hours light; 65% humidity). The plants were sprayed Post-emergence with an aqueous spray solution derived from the formulation of the technical active ingredient in acetone/water (50:50) solution containing 0.5% Tween 20 (polyoxyethelyene sorbitan monolaurate, CAS RN 9005-64-5). The test plants were then grown in a glasshouse under controlled conditions in a glasshouse (at 24/16° C., day/night; 14 hours light; 65% humidity) and watered twice daily. After 13 days for pre and post-emergence, the test was evaluated (100=total damage to plant; 0=no damage to plant).

[9] = system: Echinochloa crus-galli (ECHCG); assay: Example B post-emergence herbicidal test, ECHCG; details: Echinochloa crus-galli, 312 h, rate 250 g/ha, evaluated after 13 days, scale 0-100, read-out: Post-emergence activity ECHCG (100=total damage to plant; 0=no damage to plant)
How it was run: as §2

[10] = system: Avena fatua (AVEFA); assay: Example B post-emergence herbicidal test, AVEFA; details: Avena fatua, 312 h, rate 250 g/ha, evaluated after 13 days, scale 0-100, read-out: Post-emergence activity AVEFA (100=total damage to plant; 0=no damage to plant)
How it was run: as §2

SMILES	crop damage to winter wheat at 250 g/ha [1] [%]	pest or weed control at 250 g/ha [2] [%]	pest or weed control at 250 g/ha [3] [%]	pest or weed control at 250 g/ha [4] [%]	pest or weed control at 250 g/ha [5] [%]	pest or weed control at 250 g/ha [6] [%]	pest or weed control at 250 g/ha [7] [%]	Winter Wheat (Hereward) + cloquintocet mexyl damage (100=total damage to plant; 0=no damage to plant) [8]	pest or weed control at 250 g/ha [9] [%]	pest or weed control at 250 g/ha [10] [%]
CCCCCCC(=O)OC1=C(c2c(C)cc(C)cc2C)C(=O)C(CC2CCOC2)C1 (centres unmarked) [Compound P16]	70	100	100	100	100	100	90	0	100	100
Cc1cc(C)c(C2=C(OC(=O)C(C)(C)C)C/C(=C\C3CCOCC3)C2=O)c(C)c1 [Compound P11]	80	100	90	100	100	100	100	70	100	90
Cc1cc(-c2ccc(Cl)cc2)cc(C)c1C1C(=O)CC(CC2CCOCC2)C1=O (centres unmarked) [Compound T64]	80	50	90	90	100	100	90	70	100	100
Cc1cc(C)c(C2C(=O)CC(CC3CCCOC3)C2=O)c(C)c1 (centres unmarked) [Compound T16]	80	100	100	100	100	100	80	20	100	100
CCCC(=O)N1CCC(CC2CC(=O)C(c3c(C)cc(C)cc3C)C2=O)CC1 (centres unmarked) [Compound T84]	70	50	90	100	60	90	50	60	90	100
Cc1cc(C)c(C2=C(OC(=O)C(C)(C)C)CC(CC3CCOC3)C2=O)c(C)c1 (centres unmarked) [Compound P7]	70	100	100	100	100	100	90	0	90	80
Cc1cc(C)c(C2C(=O)C/C(=C\C3CCOC3)C2=O)c(C)c1 (centres unmarked) [Compound T17]	70	100	90	100	100	100	100	50	100	100
Cc1cc(C)c(C2C(=O)C/C(=C\C3CCOC(C)(C)C3)C2=O)c(C)c1 (centres unmarked) [Compound T37]	80	100	90	100	100	100	90	70	100	100
